Measurements published in patent publication US20230391871A1, “MONOAMINE OXIDASE BLOCKADE THERAPY FOR TREATING CANCER THROUGH REGULATING TUMOR ASSOCIATED MACROPHAGES (TAMS)” (THE REGENTS OF THE UNIVERSITY OF CALIFORNIA, priority 2020, published 2023).

System: wildtype BMDMs (bone marrow-derived macrophages)
Assay: In vitro WT BMDM IL-4/IL-13-induced polarization culture with MAOI treatment
Format: cell-based, mouse
Settings: IL-4/IL-13-stimulated WT BMDMs, 24 h
Experimental: (a) Experimental design. Wildtype BMDMs were stimulated with IL-4/IL-13 with or without MAOI treatment. MAOIs (monoamine oxidase inhibitors) studied were phenelzine (Phe: 20 μM), clorgyline (Clo: 20 μM), moclobemide (Moc: 200 μM), and pirlindole (Pir: 20 μM). NT, no MAOI treatment. (b) FACS analyses of ROS levels in BMDMs. (c) FACS analyses of CD206 expression on BMDMs. (d,e) QPCR analyses of Chi313 (d) and Arg1 (e) mRNA expression in BMDMs. f-j, Studying the TAM-related cancer immunotherapy potential of MAOI treatment in a B16-OVA melanoma syngeneic mouse tumour model (n=7-8). (f) Experimental design. B6 wildtype mice were treated with clodronate liposomes (Clod) to serve as TAM-depleted experimental mice, or treated with vehicle liposomes (Veh) to serve as TAM-intact control mice. Phe, phenelzine treatment: NT, no phenelzine treatment. (g) Tumour growth. (h) Tumour volume at day 18. (i) FACS analyses of CD206 expression on TAMs of TAM-intact experimental mice. (j) FACS analyses of intracellular Granzyme B production in tumour-infiltrating CD8^+ T cells of all experimental mice. k-o, Studying the cancer therapy potential of MAOI treatment in combination with anti-PD-1 treatment in the B16-OVA melanoma and MC38 colon cancer syngeneic mouse tumour models (n=5). (k) Experimental design. Tumour-bearing mice were treated with anti-PD-1 antibody (aPD-1) or isotype control (Iso), together with or without phenelzine (Phe) treatment. NT, no Phe treatment. (l) B16-OVA tumour growth. (m) B16-OVA tumour volume at day 18. (n) MC38 tumour growth. (o) MC38 tumour volume at day 27. Representative of 3 experiments. All data are presented as the mean±SEM. ns, not significant, *P<0.05, **P<0.01, and ***P<0.001, by I-way ANOVA (b-e, h, j, m, o) or by Student's t test (i).
To generate BMDMs, BM cells were collected from femurs and tibias of Maoa WT mice and Maoa KO mice, and were cultured in C10 medium containing with 20% of L929-conditional medium in a 10-cm dish (2×10^6 cells per ml: 12 ml per dish) for 6 days. At day 6, the resulting BMDMs were collected and reseeded in a 6-well plate (1×10^6 cells per ml: 2 ml per well) in C10 medium for 24 hours, in the presence or absence of recombinant murine IL-4 (10 ng/ml) (Peprotech, 200-04) and IL-13 (10 ng/ml) (Peprotech, 200-13) to induce BMDM immunosuppressive polarization.
In some experiments, MAOIs were added to the Maoa WT BMDM polarization culture 30 minutes prior to adding recombinant murine IL-4 and IL-13, to block MAO-A activity during BMDM polarization. MAOIs studied were phenelzine (Phe, 20 μM) (Sigma-Aldrich), clorgyline (Clo, 20 μM) (Sigma-Aldrich), moclobemide (Moc, 200 μM) (Sigma-Aldrich), and pirlindole (Pir, 20 μM) (R&D Systems). At 24 hours after IL-4/IL-13 stimulation, BMDMs were collected for analysis.
Cells were stained with surface marker antibodies, washed with PBS, then resuspended in pre-warmed PBS (1×10^6 cells/ml/tube) containing 1 μM CM-H2DCFDA (Thermo Fisher Scientific, C6827). After 15 minutes incubation at room temperature, cells were immediately washed with cold PBS followed by flow cytometry analysis. ROS levels were measured by oxidation of the CM-H2DCFDA probes that can be read out as the fluorescence intensity at the FITC/488 channel of a flow cytometer. Single cell RNA sequencing (scRNAseq) scRNASeq was used to analyze the gene expression profiles of TIIs. B16-OVA tumours were harvested from Maoa WT and Maoa KO mice to prepare TII suspensions (10 tumours were combined for each group). TII suspensions were then sorted using a FACSAria II flow cytometer to purify immune cells (gated as DAPI-CD45.2^+ cells). Sorted TIIs were immediately delivered to the Technology Center for Genomics & Bioinformatics (TCGB) facility at UCLA for library construction and sequencing.

With `NNCCc1ccccc1` [phenelzine] the “ROS levels in BMDMs (FACS)” value (MAOI 20 μM added 30 min before cytokines) was “efficiently reduced”, the “Arg1 mRNA expression in BMDMs (QPCR)” value (MAOI 20 μM) was “decreased expression” and the “CD206 expression on BMDMs (FACS)” value (MAOI 20 μM) was “decreased expression”. For the same compound, the “Chi313 mRNA expression in BMDMs (QPCR)” value (MAOI 20 μM) was “decreased expression” and the “immunosuppressive polarization of BMDMs” value (MAOI 20 μM) was “suppressed”.
